The target of one test is T1, total ErbB2 (Homo sapiens, UniProt P04626).
T1 construct: whole cell extracts were prepared by scraping cells off petri dishes; host or cells: BT474
Nature of the test: Western blot of total ErbB2, BT474 cells. It counts as cell-based. Particulars: lapatinib 0.1 μM, pAb 100 μg/ml, trastuzumab 10 μg/ml, 72 hr, FIG. 12A bottom. As to the method: (§1) To assess the levels of various proteins in cells, whole cell extracts were prepared by scraping cells off petri dishes, washing the cell pellet twice in phosphate buffered saline (PBS), and then resuspending the pellet in two-packed-cell volumes of RIPA buffer(150 mM NaCl, 50 mM Tris-HCl, pH 7.5, 0.25% (w/v) deoxycholate, 1% NP-40, 5 mM sodium orthovanadate, 2 mM sodium fluoride, and a protease inhibitor cocktail). Protein concentrations were determined using a modification of the Bradford method (Bio-Rad Laboratory). […] The immunoprecipitates were separated by 4-15% gradient SDS-polyacrylamide […] gel electrophoresis (SDS-PAGE), and ErbB receptors were detected by Western Blot with anti-ErbB receptor antibodies.
(§2) Steady state levels of Survivin, total ErbB2, phosphorylated ErbB2 (pErbB2 or pTyr), total Erk1/2 , activated Erk1/2 (p-Erk), total pErbB3, activated pErbB3 (pErbB3), total AKT protein and activated Akt (p-Akt) protein were assessed by Western blot. Levels of pErbB2 were assessed using an antibody that bound to multiple tyrosine-phosphorylated forms of ErbB2 (i.e., the antibody was not phosphorylation-site specific). […]
(§3) For Western blot, equal amounts of proteins were resolved by either 7.5% or 4-15% gradient SDS polyacrylamide gel electrophoresis under reducing conditions. […] Efficiency and equal loading of proteins was evaluated by Ponceau S staining. […]
A general note: A western blot detects proteins with antibodies after separation by electrophoresis.

Test [1] relates to SKBR3 human breast cancer cells. Nature of the test: In vitro growth inhibition assay ([3H] thymidine incorporation), SKBR3. It counts as cell-based. Particulars: 0.01 μM Lapatinib, 50 μg/ml pAb, 72 h, FIG. 11B. As to the method: (§4) The antiproliferative effect of vaccine induced anti HER2 polyclonal antibodies (pAb) in combination with Lapatinib was evaluted on human breast cancer cells overexpressing the HER2/neu molecule (BT474 and SKBR3 cells) using the [^3H] thymidine incorporation method. Briefly, 10e4 cells were seeded in 200 μl, in triplicate, in 96-w plates and incubated for 72 h at 37° C. in • 1) medium; • 2) medium containing Lapatinib alone (0.01 μM); • 3) medium containing pAb alone (50 μg/ml); • 4) medium containing pre-immune pAb (TA2021) (50 μg/ml); • 5) a combination of (2) Lapatinib (0.01 μM ) and (3) pAb (50 μg/ml); or • 6) a combination of (2) Lapatinib (0.01 μM ) and (4) pre-immune pAb (TA2021) (50 μg/ml).
(§5) 1 μCi of [^3H] Thymidine (5 Ci/mmol; Amersham) was added for an additional 24 h after which cells were harvested by trypsinisation onto filter plates and the incorporated radioactivity was counted in a beta counter. Results were expressed in cpm and the percentage of growth inhibition was calculated referring to the medium.
A general note: Incorporation of labelled thymidine or its analogues reports DNA synthesis.

Another test relates to BT474 cells. Nature of the test: Apoptosis by annexin V staining and flow cytometry, BT474. It counts as cell-based, human. The conditions noted are these: lapatinib 0.1 μM, pAb 100 μg/ml, trastuzumab 10 μg/ml, 72 hr, FIG. 12A top.
Another test has as its system phospho-Erk1/2. Nature of the test: Western blot of activated phospho-Erk1/2, BT474 cells. The conditions noted are these: 72 hr, FIG. 13. Format: cell-based, human. As to the method:
as §1, §2, §3

Another test deals with T2, phospho-ErbB2 (p-ErbB2) (Homo sapiens, UniProt P04626).
T2 construct: whole cell extracts were prepared by scraping cells off petri dishes; host or cells: BT474
T2 sequence (P04626 23-1255): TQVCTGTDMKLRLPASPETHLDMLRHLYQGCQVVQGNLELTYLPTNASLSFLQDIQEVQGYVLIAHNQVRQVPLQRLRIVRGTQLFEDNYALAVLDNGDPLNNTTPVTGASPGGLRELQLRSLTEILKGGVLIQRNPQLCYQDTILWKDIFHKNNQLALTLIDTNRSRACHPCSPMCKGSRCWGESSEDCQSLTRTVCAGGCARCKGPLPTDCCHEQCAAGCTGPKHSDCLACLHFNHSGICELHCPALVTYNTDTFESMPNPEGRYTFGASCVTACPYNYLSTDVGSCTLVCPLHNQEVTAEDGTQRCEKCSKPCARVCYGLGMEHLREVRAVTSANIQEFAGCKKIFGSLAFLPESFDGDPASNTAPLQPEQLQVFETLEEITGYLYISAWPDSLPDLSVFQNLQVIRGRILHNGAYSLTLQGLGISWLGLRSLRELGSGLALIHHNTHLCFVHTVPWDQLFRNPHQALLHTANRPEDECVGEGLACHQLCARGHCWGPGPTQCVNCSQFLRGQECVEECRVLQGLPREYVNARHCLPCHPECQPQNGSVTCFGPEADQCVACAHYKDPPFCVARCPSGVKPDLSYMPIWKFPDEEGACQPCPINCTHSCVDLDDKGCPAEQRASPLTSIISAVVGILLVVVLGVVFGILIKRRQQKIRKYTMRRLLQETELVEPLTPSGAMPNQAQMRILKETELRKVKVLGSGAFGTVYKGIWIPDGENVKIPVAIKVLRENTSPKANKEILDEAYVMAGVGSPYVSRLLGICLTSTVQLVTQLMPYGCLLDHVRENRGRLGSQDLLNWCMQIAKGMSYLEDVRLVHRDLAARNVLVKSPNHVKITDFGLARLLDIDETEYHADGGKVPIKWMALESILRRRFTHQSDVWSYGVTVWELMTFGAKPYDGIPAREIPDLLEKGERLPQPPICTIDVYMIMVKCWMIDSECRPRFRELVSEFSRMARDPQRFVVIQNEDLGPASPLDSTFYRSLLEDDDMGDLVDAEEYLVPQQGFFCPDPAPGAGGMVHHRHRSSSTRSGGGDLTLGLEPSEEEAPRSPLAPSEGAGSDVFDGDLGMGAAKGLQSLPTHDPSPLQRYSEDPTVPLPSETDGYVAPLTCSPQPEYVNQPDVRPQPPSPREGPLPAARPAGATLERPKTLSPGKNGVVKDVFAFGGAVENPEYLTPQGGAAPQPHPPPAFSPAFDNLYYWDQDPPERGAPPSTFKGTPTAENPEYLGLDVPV
Nature of the test: Western blot of activated phospho-ErbB2, BT474 cells. Format: cell-based. The conditions noted are these: lapatinib 0.1 μM, pAb 100 μg/ml, trastuzumab 10 μg/ml, 72 hr, FIG. 12A bottom. As to the method: as §1, §2, §3

The test system of another test is survivin. Nature of the test: Western blot of steady state survivin protein, BT474 cells. Format: cell-based, human. Particulars: lapatinib 0.1 μM, pAb 100 μg/ml, trastuzumab 10 μg/ml, 72 hr, FIG. 12A bottom. As to the method:
as §1, §2, §3

Test [2] deals with BT474 human breast cancer cells. Nature of the test: In vitro growth inhibition assay ([3H] thymidine incorporation), BT474. Format: cell-based. Particulars: 0.01 μM Lapatinib, 50 μg/ml pAb, 72 h, FIG. 11A. As to the method:
as §4, §5

The subject of a further test is phospho-Akt. Nature of the test: Western blot of activated phospho-Akt, BT474 cells. The conditions noted are these: 72 hr, FIG. 13. It counts as cell-based, human. As to the method:
as §1, §2, §3

The values that follow come from patent US20100028414A1, “COMBINATION OF TYROSINE KINASE INHIBITOR AND HER-2/NEU FOR CANCER THERAPY” (priority 2004, published 2010).

Each structure is given as a SMILES string.

T1 sequence (P04626 23-1255): as above

Consider `CS(=O)(=O)CCNCc1ccc(-c2ccc3ncnc(Nc4ccc(OCc5cccc(F)c5)c(Cl)c4)c3c2)o1` [lapatinib, N-{3-Chloro-4-[(3-fluorobenzyl)oxy]phenyl}-6-[5-({[2-(methanesulphonyl)ethyl]amino}methyl)-2-furyl]-4-quinazolmamine], for which the “total ErbB2 protein” value on total ErbB2 is reported as “without affecting total ErbB2 protein”. The growth inhibition entry in test [1] and in test [2] was “only modest growth inhibition” each time. Also, in the test with BT474 cells, the apoptosis result was “slight increase in apoptosis”. The “steady state levels of pErk1/2” value with phospho-Erk1/2 is “reduced”. The “steady-state levels of activated, phosphorylated ErbB2 protein (pErbB2)” value on phospho-ErbB2 (p-ErbB2) is recorded as “inhibited”. Also, the survivin protein expression result in the test with survivin was “inhibited”. Moreover, in the test with phospho-Akt, the “steady state levels of pAkt” value is reported as “reduced”.
